Patent US5260340A, “Prevention and amelioration of acetaminophen toxicity with beta-carotene” (priority 1992, dated 1993)
Where two headings read alike, the source gives them in different places.

How the values were obtained:
liver = conditions: cited from earlier work
[1] = cited from earlier work
mice = assay: Feeding of mice following IP injection of a lethal dose of acetaminophen; format: in vivo
[2] = cited from earlier work; remark: listed apart in the source
[3] = human; not yet determined; cited from earlier work
acetaminophen toxicity [4] = assay: Antidotal treatment of acetaminophen toxicity (Example 7): survival and weight restoration; format: in vivo, 129/ReJ mice
Experimental: (§1) The total amount of beta-carotene consumed by mice in each experiment was computed using the estimates that a 25 gram mouse will consume […] of food and 25 ml/day of water, under normal conditions.
(§2) The design of this experiment was predicated on the clinical time sequence involved in, or associated with, acetaminophen overdose and toxicity, and the biological response of mice to lethal injections of this drug. When a human ingests a toxic, potentially lethal dose of acetaminophen, few if any, clinical signs manifest during the first forty-eight hours. The patient remains alert and can take food voluntarily or by a nasal gastric tube. […] Because the time course of human toxicity implies that a patient could orally ingest an antidote such as beta-carotene within the forty-eight hour period immediately following an overdose, it was proposed that a comparative animal model would be feeding subjects with a beta-carotene diet for forty-eight hours prior to the administration of a known lethal dose of acetaminophen.
Eight 129/ReJ mice (The Jackson Laboratory) were wholly or partially starved for seventy-two hours to enhance their appetite. Mean weight loss during this period was 13%. […] Each mouse ingested about 0.1 gram of beta-carotene by the forty-eighth hour. […]

acetaminophen toxicity [5] = assay: Prevention of acetaminophen toxicity, simultaneous administration (Example 6): survival and body weight; format: in vivo, 129ReJ mice; conditions: beta-carotene diet
Experimental: as §1
Ten 129ReJ mice (The Jackson Laboratory) were starved for twelve hours during which time they lost 4% of their original weight. The mice were then given drinking bottles containing a 0.1% aqueous solution of acetaminophen (Fisher Scientific). The mice were given a Modified HLR 341 diet with 10 percent of 10% beta-carotene beadlets, 10% safflower oil, 6% lard, 1.6 mg/kg of vitamin K, and 4000 IU/kg of vitamin A (Dyets, Inc.). The food regimen was continued throughout the remainder of the experiment.
At the sixtieth hour, all of the mice received an IP injection of 300 mg/kg of acetaminophen, and the drinking bottles were filled with pure water.

[6] = mammals; cited from earlier work
[7] = system: Kupffer cells of the liver; conditions: in vivo; cited from earlier work
cytochrome P450 = conditions: fourteen days of dietary beta-carotene supplement; mouse liver homogenates; cited from earlier work
toxicity due to aspirin = conditions: in vivo; cited from earlier work
acetaminophen toxicity [8] = assay: Prevention of acetaminophen toxicity, pre-administration of beta-carotene in the diet: survival after IP acetaminophen 800 mg/kg; format: in vivo, 129/ReJ mice; conditions: for mice alive seventy-two hours after injection: 800 mg/kg acetaminophen IP; for Survival 72 Hours After Ingestion (%) / Survival 72 Hours After Ingestion, Survivors/Sample: acetaminophen 800 mg/kg IP
Experimental: as §1
Nine 129/ReJ mice, (The Jackson Laboratory-Bar Harbor, Me.) were pre-fed a diet of Modified HLR 341 with 10 percent of 10% beta-carotene beadlets, 1.6 mg/kg of vitamin K, and 4,000 IU/kg of vitamin A (Dyets, Inc.--Bethlehem, Pa.) for a period of five months. Each mouse ingested about 7.5 grams of beta-carotene.
Each mouse then received an intraperitoneal (IP) injection of 800 mg/kg of acetaminophen (Fisher Scientific-Pittsburgh, Pa.) dissolved in 20% Tween 80 (Sigma Chemical Company -- St. Louis, Mo.) in saline. […]

[9] = system: aflatoxin-induced liver toxicity; conditions: chickens; simultaneous administration; cited from earlier work
[10] = system: toxic side effects of antibiotics; conditions: plants; cited from earlier work
acetaminophen toxicity [11] = assay: Prevention of acetaminophen toxicity, simultaneous administration (Example 5): survival; format: in vivo, DBA/2J mice; conditions: about 20 mg total beta-carotene per mouse by hour 24; 1% acetaminophen in water, 500 mg/kg IP at hours 24 and 30
Experimental: as §1
Four DBA/2J mice (The Jackson Laboratory) were weighed. Food was removed, and the mice were given drinking bottles containing a one percent aqueous solution of acetaminophen (Fisher Scientific) and 60 mg of beta-carotene per 100 ml ("Twinlab"--Twin Laboratories--Ronkonkoma, N.Y.). After twenty-two hours, the mice were given a Modified HLR 341 diet having 10 percent of 10% beta-carotene beadlets, 10% safflower oil food pellets, 6% lard, 1.6 mg/kg of vitamin K, and 4000 IU/kg of vitamin A (Dyets, Inc.). Each mouse ingested about 20 mg total beta-carotene from the water and food by the twenty-fourth hour.
At the twenty-fourth and thirtieth hours, all of the mice received an IP injection of 500 mg/kg of acetaminophen dissolved in 20% Tween 80 (Sigma Chemical Co.) in saline. At the forty-eighth hour, all of the mice were weighed, and the drinking bottles were filled with pure water.

acetaminophen toxicity [12] = assay: Antidotal treatment of acetaminophen toxicity (Example 8): survival and weight regain; format: in vivo, DBA/2J mice
Experimental: as §1, §2
Twelve DBA/2J mice (The Jackson Laboratory) were weighed and starved for seventy-two hours. The mean weight loss during this time was 27%. The mice received a Modified HLR 341 diet with 10 percent of 10% beta-carotene beadlets, 10% safflower oil, 6% lard, 1.6 mg/kg of vitamin K, and […] of vitamin A (Dyets, Inc.). The mice regained 86% of their original weight. Each mouse ingested about 0.1 gram of beta-carotene by the forty-eighth hour.
After forty-eight hours on the experimental diet, the mice received an IP injection of 800 mg/kg of acetaminophen (Fisher Scientific) dissolved in 20% Tween 80 (Sigma Chemical Co.) in saline.
The mice were reweighed, and a second injection of 600 mg/kg of acetaminophen dissolved in 20% Tween 80 in saline was given to each mouse. By seventy hours after the first injection, 92% of the mice were alive.

[13] = system: duodenal ulcers and stress ulcers; conditions: rats fed 3-, 4-diaminotoluene; cited from earlier work
[14] = forty-eight hours on beta-carotene diet after starvation, before acetaminophen
[15] = acetaminophen in water, 600 mg/kg IP after hour 48 and 300 mg/kg IP at hour 60

Question: Which “time of hepatic failure after ingestion” value (liver; acute acetaminophen toxicity) does the source give for `CC(=O)Nc1ccc(O)cc1` [acetaminophen] here?
Answer: three to five

Question: What about the “ingestion at which mortality is significantly higher” value (liver; acute ingestion) of the same molecule?
Answer: exceeds 25 grams

Question: What about the toxic dosage (liver; adult) of the same molecule?
Answer: greater than 10 grams

Question: And the toxic dosage (liver; child)?
Answer: ≥ 140 milligrams per kilogram

Question: What about the “dosage that has resulted in chronic liver disease” value (liver; long term dosages, as low as) of the same molecule?
Answer: three

Question: What about the solubility in water [1] of the same molecule?
Answer: soluble in water

Question: What about the “feeding following IP injection of a lethal dose” value (mice) of the same molecule?
Answer: cease to feed

Question: And the half-life ([2]; normal dosages, normal patient)?
Answer: about 21/2

Question: And the half-life ([2]; severe hepatocellular injury)?
Answer: over 4 hours

Question: For `CC1=C(/C=C/C(C)=C/C=C/C(C)=C/C=C/C=C(C)/C=C/C=C(C)/C=C/C2=C(C)CCCC2(C)C)C(C)(C)CCC1` [beta-carotene], which “safe upper limit (believed)” value [3] is on record?
Answer: at least 1,000 mg/day

Question: What about the “mice alive seventy-two hours after injection” value (shortened to “mice alive seventy-two hours”) (acetaminophen toxicity [4]; beta-carotene diet for forty-eight hours (about 0.1 gram per mouse), 800 mg/kg acetaminophen IP) of the same molecule?
Answer: 63%

Question: And the “restoration of original weight” value (acetaminophen toxicity [4]; [14])?
Answer: 98%

Question: What about the “body weight after twenty-four hours” value (acetaminophen toxicity [5]; 0.1% aqueous acetaminophen) of the same molecule?
Answer: regained or increased their original weight

Question: What about the “body weight after the forty-eighth hour” value (acetaminophen toxicity [5]; 0.5% aqueous acetaminophen) of the same molecule?
Answer: maintenance of the mice's original weight

Question: What about the “animals alive at the seventy-second hour” value (acetaminophen toxicity [5]; [15]) of the same molecule?
Answer: all of the animals were alive

Question: And the “mice alive at the one hundred fiftieth hour” value (acetaminophen toxicity [5]; [15])?
Answer: 90%

Question: And the “body weight, of original weights, at the one hundred fiftieth hour” value (acetaminophen toxicity [5]; acetaminophen in water, 600 and 300 mg/kg IP)?
Answer: 93%

Question: And the “oxidative cleavage at the central double bond” value [6]?
Answer: readily undergoes oxidative cleavage at the central double bond

Question: And the “deposition in liver cells” value [7]?
Answer: deposited in, and remains sequestered in, only the Kupffer cells of the liver

Question: And the “cytochrome P450” value (cytochrome P450)?
Answer: reduced cytochrome P450

Question: And the “adverse side effects and toxicity due to aspirin” value (toxicity due to aspirin)?
Answer: reduced adverse side effects and toxicity due to aspirin

Question: What about the “survival rate compared with Comparative Examples 1A*-4A*” value (acetaminophen toxicity [8]; administration before challenge with toxic amounts of acetaminophen) of the same molecule?
Answer: increases the survival rate significantly

Question: And the “mice alive seventy-two hours” value (acetaminophen toxicity [8]; nine mice, pre-fed five months (about 7.5 grams beta-carotene))?
Answer: all mice were alive

Question: What about the “mice alive seventy-two hours” value (acetaminophen toxicity [8]; nineteen mice, pre-fed seven days (about 0.35 grams beta-carotene)) of the same molecule?
Answer: five of the mice were alive

Question: And the “Survival 72 Hours After Ingestion (%)” value (acetaminophen toxicity [8]; pre-feeding 5 Months)?
Answer: 100%

Question: And the “Survival 72 Hours After Ingestion, Survivors/Sample” value (acetaminophen toxicity [8]; pre-feeding 5 Months)?
Answer: 9/9

Question: And the “Survival 72 Hours After Ingestion (%)” value (acetaminophen toxicity [8]; pre-feeding 5 Weeks)?
Answer: 65%

Question: What about the “Survival 72 Hours After Ingestion, Survivors/Sample” value (acetaminophen toxicity [8]; pre-feeding 5 Weeks) of the same molecule?
Answer: 13/20

Question: And the “Survival 72 Hours After Ingestion (%)” value (acetaminophen toxicity [8]; pre-feeding 7 Days)?
Answer: 26%

Question: And the “Survival 72 Hours After Ingestion, Survivors/Sample” value (acetaminophen toxicity [8]; pre-feeding 7 Days)?
Answer: 5/19

Question: What about the “Survival 72 Hours After Ingestion (%)” value (acetaminophen toxicity [8]; pre-feeding 23 Days) of the same molecule?
Answer: 100%

Question: And the “Survival 72 Hours After Ingestion, Survivors/Sample” value (acetaminophen toxicity [8]; pre-feeding 23 Days)?
Answer: 20/20

Question: And the “mice alive seventy-two hours” value (acetaminophen toxicity [8]; twenty mice, pre-fed five weeks (about 1.75 grams beta-carotene))?
Answer: thirteen of the mice were alive

Question: What about the “mice alive seventy-two hours” value (acetaminophen toxicity [8]; twenty mice, pre-fed twenty-three days (about 1.15 grams beta-carotene)) of the same molecule?
Answer: twenty of the mice were alive

Question: What about the aflatoxin-induced liver toxicity [9] of the same molecule?
Answer: reduction of aflatoxin-induced liver toxicity

Question: And the “toxic side effects of antibiotics” value [10]?
Answer: prevent the toxic side effects of antibiotics

Question: What about the “mice alive by the seventy-second hour” value (acetaminophen toxicity [11]) of the same molecule?
Answer: 75%

Question: And the “mice alive by seventy hours after the first injection” value (acetaminophen toxicity [12]; about 0.1 gram beta-carotene, acetaminophen 800 mg/kg IP then 600 mg/kg)?
Answer: 92%

Question: What about the “regain of original weight” value (acetaminophen toxicity [12]; [14]) of the same molecule?
Answer: 86%

Question: What about the “mice that had died by thirty-six hours after the injection” value (acetaminophen toxicity [12]; twelve mice, about 0.1 gram beta-carotene, 800 mg/kg acetaminophen IP) of the same molecule?
Answer: one mouse had died

Question: Which “adverse side effects and toxicity due to aspirin” value (toxicity due to aspirin) does the source give for vitamin A here?
Answer: reduced adverse side effects and toxicity due to aspirin

Question: What about the “duodenal ulcers and stress ulcers” value [13] of the same molecule?
Answer: could prevent duodenal ulcers and stress ulcers
